Assay results from patent US11440905B2, “Biheterocyclic compound” (SUMITOMO PHARMA CO., LTD., priority 2016, dated 2022).
Counter-ions that a name gives are not always drawn.

Target: T1, mouse semaphorin 3A (Sema3A) (Mus musculus, UniProt O08665)
T1 sequence (O08665 21-772): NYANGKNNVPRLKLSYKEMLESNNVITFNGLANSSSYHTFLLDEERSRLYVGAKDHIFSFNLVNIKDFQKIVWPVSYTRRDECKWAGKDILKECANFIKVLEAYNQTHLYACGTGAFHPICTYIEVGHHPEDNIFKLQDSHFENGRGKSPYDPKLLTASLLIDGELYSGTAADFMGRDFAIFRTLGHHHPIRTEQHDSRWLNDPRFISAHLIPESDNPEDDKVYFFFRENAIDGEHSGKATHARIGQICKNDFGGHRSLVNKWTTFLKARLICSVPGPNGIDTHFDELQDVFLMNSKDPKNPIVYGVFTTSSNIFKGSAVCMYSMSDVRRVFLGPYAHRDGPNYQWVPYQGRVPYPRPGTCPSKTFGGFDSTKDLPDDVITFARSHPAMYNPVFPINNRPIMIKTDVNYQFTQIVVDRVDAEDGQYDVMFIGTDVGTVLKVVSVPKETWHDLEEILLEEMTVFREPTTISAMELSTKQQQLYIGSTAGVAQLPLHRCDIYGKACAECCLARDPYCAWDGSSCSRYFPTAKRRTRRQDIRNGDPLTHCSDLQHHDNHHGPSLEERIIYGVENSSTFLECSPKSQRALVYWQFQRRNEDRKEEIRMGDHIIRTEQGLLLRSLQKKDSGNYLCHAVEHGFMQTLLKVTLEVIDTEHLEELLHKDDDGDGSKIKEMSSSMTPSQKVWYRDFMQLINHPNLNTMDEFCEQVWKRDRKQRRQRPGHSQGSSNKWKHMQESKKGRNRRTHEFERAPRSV
Assay: Inhibitory activity for the collapse activity caused by Sema3A (growth cone collapse assay, Test 1)
Assay type: cell-based
Conditions: chick embryo dorsal root ganglion, 3 units/mL mouse Sema3A, smaller value = more potent inhibition, read-out: residual ratio (%) of Sema3A activity (collapse assay); for remaining activity at 1 µM: 1 μM test compound; for remaining activity at 3 µM: 3 μM test compound; for remaining activity at 10 µM: 10 μM test compound
Description: Inhibitory Activity for the Collapse Activity Caused by Sema3A
96 well-plate (SUMITOMO BAKELITE CO., LTD.) which was beforehand coated with polylysine was further coated with laminin (10 μL laminin, at room temperature, for 1 hour). To each well was added 100 μL of a medium (F12 medium containing 10% fetal bovine serum, 20 ng/mL NGF, 100 unit/mL penicillin, and 100 μg/mL streptomycin). Dorsal root ganglion harvested from 7-8 day-old chick embryo was inoculated thereto, and the culture medium was cultivated under the condition of 5% CO2 and 37° C. for 16-20 hours. And then, each test compound in various concentrations was added to the medium, each test medium was cultivated for 30 minutes, 3 units/mL mouse semaphorin 3A (Sema3A) was added to each medium, and then each test medium was cultivated for more 30 minutes. Then, glutaraldehyde was added to the medium, in which the final concentration of glutaraldehyde was 1%. The medium was left to stand at room temperature for 15 minutes to make the tissue fragment fixed, and the ratio of the retracted growth cone was measured under a microscope.

| Compound | remaining activity at 1 µM [%] | remaining activity at 3 µM [%] | remaining activity at 10 µM [%] |
| --- | --- | --- | --- |
| Cn1cc(-c2coc3cc(O)c(O)c(C(=O)O)c3c2=O)c(=O)c2cc(O)c(O)cc21 [Example 1, 3-(6,7-Dihydroxy-1-methyl-4-oxo-1,4-dihydroquinolin-3-yl)-6,7-dihydroxy-4-oxo-4H-chromene-5-carboxylic acid] | 2 | 4.6 |  |
| Cn1cc(-c2coc3cc(O)c(O)c(C(=O)OCc4cn(CC(=O)N[C@@H](CCCNC(=N)N)C(=O)O)nn4)c3c2=O)c(=O)c2cc(O)c(O)cc21 [Example 4, N^2-({4-[({[3-(6,7-Dihydroxy-1-methyl-4-oxo-1,4-dihydroquinolin-3-yl)-6,7-dihydroxy-4-oxo-4H-chromen-5-yl]carbonyl}oxy)methyl]-1H-1,2,3-triazol-1-yl}acetyl)-L-arginine trifluoroacetate] | 6 |  |  |
| Cn1cc(-c2coc3cc(O)c(O)c(C(=O)N[C@@H](CCC(=O)O)C(=O)O)c3c2=O)c(=O)c2cc(O)c(O)cc21 [Example 5, N-{[3-(6,7-Dihydroxy-1-methyl-4-oxo-1,4-dihydroquinolin-3-yl)-6,7-dihydroxy-4-oxo-4H-chromen-5-yl]carbonyl}-L-glutamic acid] | 5.1 | 3.3 |  |
| Cc1c(-c2coc3cc(O)c(O)c(C(=O)O)c3c2=O)c(=O)c2cc(O)c(O)cc2n1C [Example 7, 3-(6,7-Dihydroxy-1,2-dimethyl-4-oxo-1,4-dihydroquinolin-3-yl)-6,7-dihydroxy-4-oxo-4H-chromene-5-carboxylic acid] |  | < 70 | < 40 |
| Cc1c(-c2coc3cc(O)c(O)c(C(=O)OCc4cn(CC(=O)N[C@@H](CCC(=O)O)C(=O)O)nn4)c3c2=O)c(=O)c2cc(O)c(O)cc2n1C [Example 8, N-({4-[({[3-(6,7-Dihydroxy-1,2-dimethyl-4-oxo-1,4-dihydroquinolin-3-yl)-6,7-dihydroxy-4-oxo-4H-chromen-5-yl]carbonyl}oxy)methyl]-1H-1,2,3-triazol-1-yl}acetyl)-L-glutamic acid] | 27.3 | 21 |  |
| O=C(O)c1c(O)c(O)cc2occ(-c3cc4cc(O)c(O)cc4oc3=O)c(=O)c12 [Example 9, 6,6′,7,7′-Tetrahydroxy-2,4′-dioxo-2H,4′H-3,3′-bichromene-5′-carboxylic acid] | 3.4 | 7.3 |  |

Now from value to compound:

| remaining activity at 1 µM [%] | remaining activity at 3 µM [%] | remaining activity at 10 µM [%] | Compound |
| --- | --- | --- | --- |
| 7.9 |  |  | O=C(O)CC[C@H](NC(=O)Cn1cc(COC(=O)c2c(O)c(O)cc3occ(-c4cc5cc(O)c(O)cc5oc4=O)c(=O)c23)nn1)C(=O)O [Example 11, N-{[4-({[(6,6′,7,7′-Tetrahydroxy-2,4′-dioxo-2H,4′H-3,3′-bichromen-5′-yl)carbonyl]oxy}methyl)-1H-1,2,3-triazol-1-yl]acetyl}-L-glutamic acid] |
| 65.5 |  |  | N=C(N)NCCC[C@H](NC(=O)Cn1cc(COC(=O)c2c(O)c(O)cc3occ(-c4cc5cc(O)c(O)cc5oc4=O)c(=O)c23)nn1)C(=O)O [Example 12, N^2-{[4-({[(6,6′,7,7′-Tetrahydroxy-2,4′-dioxo-2H,4′H-3,3′-bichromen-5′-yl)carbonyl]oxy}methyl)-1H-1,2,3-triazol-1-yl]acetyl}-L-arginine trifluoroacetate] |
|  |  | < 70 | Cn1c(=O)c(-c2coc3cc(O)c(O)c(C(=O)O)c3c2=O)cc2cc(O)c(O)cc21 [Example 13, 3-(6,7-Dihydroxy-1-methyl-2-oxo-1,2-dihydroquinolin-3-yl)-6,7-dihydroxy-4-oxo-4H-chromene-5-carboxylic acid] |
| 78.8 | 6.1 |  | Cn1c(=O)c(-c2coc3cc(O)c(O)c(C(=O)OCc4cn(CC(=O)N[C@@H](CCC(=O)O)C(=O)O)nn4)c3c2=O)cc2cc(O)c(O)cc21 [Example 14, N-({4-[({[3-(6,7-Dihydroxy-1-methyl-2-oxo-1,2-dihydroquinolin-3-yl)-6,7-dihydroxy-4-oxo-4H-chromen-5-yl]carbonyl}oxy)methyl]-1H-1,2,3-triazol-1-yl}acetyl)-L-glutamic acid] |
